Assay results: US7919680B2, “Nucleic acids encoding anthelmintic agents and plants made therefrom” (Divergence, Inc., priority 2004, dated 2011)

Experiments:
C. elegans [1] = experiment: Nematicidal activity of methyl ester, salt and free fatty acid emulsions vs. C. elegans N2s (Table 3); assay type: in vivo, Caenorhabditis elegans
Excerpt: Nematicidal Activity of Single Fatty Acid Methyl Ester, Salt and Free Fatty Acid Emulsions Against Caenorhabditis elegans […] and Dauers

C. elegans [2] = experiment: Nematicidal activity of fatty acid methyl ester emulsions against C. elegans (Table 2)
P. trichosuri = experiment: Nematicidal activity of fatty acid methyl ester emulsions, nematode spectrum (Table 6); assay type: in vivo, Parastrongyloides trichosuri; conditions: P. trichosuri infective 3rd stage larva
Protocol: (§1) Briefly, the indicated fatty acid emulsions were added to nematodes in wells of a 24-well plate and rapidly mixed by swirling. […] Results shown are mean % values obtained from multiple independent experiments
(§2) The Caenorhabditis elegans were mixed stage populations. Similar effects were seen on several other free-living nematode species. The Parastrongyloides trichosuri (parasite of Australian bushtail possum) were dauer-like infective 3rd stage larva. Similar effects are also seen against free-living stages. The Meloidogyne incognita and Meloidogyne javanica (root knot nematode) were 2nd stage juveniles (dauer-like infective stage). The Heterodera glycines (soybean cyst nematode) were 2nd stage juveniles (dauer-like infective stage). Finally, the Pratylenchus scribneri (corn lesion nematode) were mixed stage populations.

P. scribneri = experiment: as above; assay type: in vivo, Pratylenchus scribneri; conditions: P. scribneri mixed stage
Protocol: as §1, §2

H. glycines = experiment: as above; assay type: in vivo, Heterodera glycines; conditions: H. glycines 2nd stage juveniles, head 24 hr, b171 48 hours
Protocol: as §1, §2

M. javanica [3] = experiment: as above; assay type: in vivo, Meloidogyne javanica; conditions: M. javanica 2nd stage juveniles, head 24 hr, b171 48 hours
Protocol: as §1, §2

M. incognita [4] = experiment: as above; assay type: in vivo, Meloidogyne incognita; conditions: M. incognita 2nd stage juveniles, head 24 hr, b171 48 hours
Protocol: as §1, §2

M. javanica [5] = experiment: Nematicidal activity of fatty acid methyl ester emulsions against root knot nematode J2 larvae (Table 5); assay type: in vivo; conditions: 0.1% emulsion; 48 hours incubation, counted about 24 hours after transfer to plates
Protocol: (§3) M. incognita and M. javanica were prepared from tomato roots. The roots were bleached and the debris was separated from the J2 larvae and eggs by filtration followed by sucrose density gradient centrifugation. Eggs were hatched over 4 days at 15° C. and the J2 larvae were collected by passage though a filter, followed by centrifugation.
(§4) Nematodes and emulsions were incubated with shaking at room temperature for 48 hours. The contents of each well were transferred to a small spot on individual NGM plates lacking bacteria. About 24 hours after the transfer to plates, worms on and off the inoculation spot were counted as not viable or viable, respectively. Worms were considered viable if they had crawled away from the inoculation spot, or if they were moving. Worms were considered non-viable if they remained at the inoculation spot.

M. incognita [6] = experiment: as above; assay type: in vivo; conditions: 0.1% emulsion; 48 hours incubation, counted about 24 hours after transfer to plates
Protocol: as §3, §4

C. elegans [7] = experiment: Nematicidal activity of fatty acid methyl ester emulsions, nematode spectrum (Table 6); assay type: in vivo, Caenorhabditis elegans; conditions: C. elegans mixed stage
Protocol: as §1, §2

C. elegans dauers = experiment: Nematicidal activity of methyl ester, salt and free fatty acid emulsions vs. C. elegans dauers (Table 4); assay type: in vivo, Caenorhabditis elegans
tomato seedlings = experiment: Phytotoxicity evaluation of fatty acid methyl esters on tomato seedlings; assay type: in vivo; conditions: for phytotoxic effects on tomato seedlings: 250 μl of 1% emulsion at stem-media interface of two-week seedlings
Protocol: Sterilized tomato seeds were germinated in magenta jars containing Gamborg's agar media. After two weeks of growth, seedlings were treated with 250 μl of 1% fatty acid methyl ester emulsion (nonanoic acid, ricinoleic acid, ricinelaidic acid, oleic acid, or a control emulsion lacking any fatty acid), applied directly to the stem-media interface. Tomato seedlings were scored at various times after application of emulsions.

[8] = system: wide spectrum of divergent nematode genera; experiment: Summary of Table 6: free-living, animal parasitic and plant parasitic nematodes; assay type: in vivo
Protocol: as §1

C. elegans [9] = experiment: Rescue of delta-12 fat2 RNAi feeding phenotype by fatty acid methyl esters; assay type: in vivo; conditions: for rescue of the delta-12 fat2 RNAi feeding phenotype: 3 mM added to NGM media
Excerpt: RNAi by feeding: C. elegans can be grown on lawns of E. coli genetically engineered to produce double stranded RNA (dsRNA) designed to inhibit delta-12 fat2 expression. Briefly, E. coli were transformed with a genomic fragment of a portion of the C. elegans fat2 gene sequence, specifically a fragment 651 nucleotides long, containing the entire first exon and terminating just before the conserved intron splice junction between the first exon and first intron. This construct encodes approximately the first 217 amino acids of the C. elegans delta-12 fat2 gene. The 651 nucleotide genomic fragment was cloned into an E. coli expression vector between opposing T7 polymerase promoters. The clone was then transformed into a strain of E. coli that carries an IPTG-inducible T7 polymerase. As a control, E. coli was transformed with a gene encoding the Green Fluorescent Protein (GFP). Feeding RNAi was initiated from C. elegans eggs or from C. elegans L4s. […] The sequence of the fat2 gene is of sufficiently high complexity (i.e., unique) such that the RNAi is not likely to represent cross reactivity with other genes.
The C. elegans delta-12 fatty acid desaturase (FAT-2 protein) converts the mono-unsaturated oleic acid to the di-unsaturated fatty acid linoleic acid. The delta-12 fat2 RNAi prevents expression of the delta-12 fatty acid desaturase, which is predicted to cause a decrease in levels of linoleic acid in the nematode, leading to arrested development and death.

Row | SMILES | worm death (C. elegans [1]; 0.01% emulsion) | worm death (C. elegans [1]; 0.1% emulsion) | Percentage of Worm Death 1 hr (C. elegans [2]; 0.003% emulsion) | Percentage of Worm Death 6 hr (C. elegans [2]; 0.003% emulsion) | Percentage of Worm Death 24 hr (C. elegans [2]; 0.003% emulsion) | Percentage of Worm Death 1 hr (C. elegans [2]; 0.1% emulsion) | Percentage of Worm Death 6 hr (C. elegans [2]; 0.1% emulsion) | Percentage of Worm Death 24 hr (C. elegans [2]; 0.1% emulsion) | worm death (C. elegans [1]; 0.001% emulsion) | worm death (C. elegans dauers; 0.01% emulsion) | worm death (C. elegans dauers; 0.1% emulsion) | also measured
1 | CCCCCC[C@@H](O)C/C=C/CCCCCCCC(=O)[O-].[Na+] [Sodium Re*, sodium salt of ricinelaidic acid] | 100% | 100% | – | – | – | – | – | – | – | – | – | –
2 | CCCCCC1OC1C/C=C\CCCCCCCC(=O)OC (stereo in doubt) [Vernolic Acid (C18-methyl ester), vernolic acid methyl ester] | – | – | 20% | 20% | 20% | 65% | 65% | 75% | – | – | – | % Worm Death (24 hr) (P. trichosuri; 0.01% solution): ~90%; % Worm Death (24 hr) (P. trichosuri; 0.1% solution): ~95%; % Worm Death (24 hr) (P. scribneri; 0.01% solution): <20%; % Worm Death (24 hr) (P. scribneri; 0.1% solution): <20%; % Worm Death (24 hr) (H. glycines; 0.001% solution): 18%; % Worm Death (24 hr) (H. glycines; 0.01% solution): 20%; % Worm Death (24 hr) (H. glycines; 0.1% solution): 30%; % Worm Death (24 hr) (M. javanica [3]; 0.01% solution): 60%; % Worm Death (24 hr) (M. javanica [3]; 0.1% solution): 90%; % Worm Death (24 hr) (M. incognita [4]; 0.01% solution): 73%; % Worm Death (24 hr) (M. incognita [4]; 0.1% solution): 98%; M. javanica (% not viable) (M. javanica [5]): 90%; M. incognita (% not viable) (M. incognita [6]): 100%; % Worm Death (24 hr) (C. elegans [7]; 0.001% solution): 30%; % Worm Death (24 hr) (C. elegans [7]; 0.01% solution): 50%; % Worm Death (24 hr) (C. elegans [7]; 0.1% solution): 80%
3 | CCCCCC[C@@H](O)C/C=C/CCCCCCCC(=O)O [Re free acid*, ricinelaidic acid] | 98% | 100% | – | – | – | – | – | – | 40% | 75% | 75% | –
4 | CCCCCCCCC(=O)OC [Nonanoic (C9-methyl ester), pelargonic acid methyl ester] | 100% | 100% | 50% | 50% | 50% | 100% | 100% | 100% | 30% | – | – | "stun" effect (C. elegans [2]; 0.003% emulsion, many nematodes recover several hours post inoculation): temporarily “stunned”; nematicidal activity (C. elegans [2]; concentration of 0.1%): strongly nematicidal; onset of effect on nematode movement and death (C. elegans [2]; emulsion, Table 2): almost immediate cessation of nematode movement and subsequent death; time to almost entire bleaching and near total collapse (tomato seedlings; 250 μl of 1% emulsion): ≤ 24 h; phytotoxic effects on tomato seedlings (tomato seedlings): obvious phytotoxic effects
5 | CCCCCC[C@@H](O)C/C=C\CCCCCCCC(=O)[O-].[K+] [Potassium R, potassium salt of ricinoleic acid] | 15% | 90% | – | – | – | – | – | – | 5% | 20% | 75% | –
6 | CCCCCC[C@@H](O)C/C=C/CCCCCCCC(=O)OC [Re ME, ricinelaidic acid methyl ester] | 100% | 100% | – | – | – | – | – | – | 80% | 100% | 100% | % Worm Death (24 hr) (P. trichosuri; 0.01% solution): 100%; % Worm Death (24 hr) (P. trichosuri; 0.1% solution): 100%; % Worm Death (24 hr) (P. scribneri; 0.01% solution): ~40%; % Worm Death (24 hr) (P. scribneri; 0.1% solution): ~70%; % Worm Death (24 hr) (H. glycines; 0.001% solution): 100%; % Worm Death (24 hr) (H. glycines; 0.01% solution): 100%; % Worm Death (24 hr) (H. glycines; 0.1% solution): 100%; phytotoxic effects on tomato seedlings (tomato seedlings): low phytotoxicity; nematicidal activity ([8]; concentrations of 0.1% and 0.01%): strongly nematicidal; breadth of nematicidal activity ([8]; summary of Table 6): favorable nematicidal activity against a wide spectrum of divergent nematode genera; % Worm Death (24 hr) (M. javanica [3]; 0.001% solution): ~60%; % Worm Death (24 hr) (M. javanica [3]; 0.01% solution): 100%; % Worm Death (24 hr) (M. javanica [3]; 0.1% solution): 100%; % Worm Death (24 hr) (M. incognita [4]; 0.001% solution): 97%; % Worm Death (24 hr) (M. incognita [4]; 0.01% solution): ~99%; % Worm Death (24 hr) (M. incognita [4]; 0.1% solution): ~99%; % Worm Death (24 hr) (C. elegans [7]; 0.001% solution): 75%; % Worm Death (24 hr) (C. elegans [7]; 0.01% solution): 100%; % Worm Death (24 hr) (C. elegans [7]; 0.1% solution): 100%
7 | CCCCC/C=C\C/C=C\CCCCCCCC(=O)OC [Linoleic Acid (C18-methyl ester), linoleic acid methyl ester] | <5% | <5% | 0-5% | 0-5% | 0-5% | 0-5% | 0-5% | 0-5% | <5% | 20% | 40% | rescue of the delta-12 fat2 RNAi feeding phenotype (C. elegans [9]): partial rescue; P0 phenotype (C. elegans [9]; fat2 RNAi feeding starting with L4 larvae, 3 mM fatty acid methyl ester in NGM media): Reduced egg laying
8 | CCCCCCCC/C=C\CCCCCCCC(=O)OC [Oleic Acid (C18-methyl ester), oleic acid methyl ester] | – | – | 0-5% | 0-5% | 0-5% | 0-5% | 0-5% | 0-5% | – | – | – | rescue of the delta-12 fat2 RNAi feeding phenotype (C. elegans [9]): does not rescue
9 | CCCCC/C=C\C/C=C\CCCCCCCC(=O)O [L free acid, linoleic acid, reference compound] | <5% | 10% | – | – | – | – | – | – | <5% | 40% | 50% | –
